Reference: article PMC5851003 (ACS nano, 2018)

What was measured:
[1] = biological target: human α4β2 nicotinic acetylcholine receptor (nAChR) (Homo sapiens, UniProt P17787+P43681); assay type: binding; conditions: SH-EP1-α4β2 cells
CXCR-4 receptor = CXCR-4 receptor (Homo sapiens, UniProt P61073); assay type: binding; conditions: A549 cells
Chain of CXCR-4 receptor (P61073 whole entry): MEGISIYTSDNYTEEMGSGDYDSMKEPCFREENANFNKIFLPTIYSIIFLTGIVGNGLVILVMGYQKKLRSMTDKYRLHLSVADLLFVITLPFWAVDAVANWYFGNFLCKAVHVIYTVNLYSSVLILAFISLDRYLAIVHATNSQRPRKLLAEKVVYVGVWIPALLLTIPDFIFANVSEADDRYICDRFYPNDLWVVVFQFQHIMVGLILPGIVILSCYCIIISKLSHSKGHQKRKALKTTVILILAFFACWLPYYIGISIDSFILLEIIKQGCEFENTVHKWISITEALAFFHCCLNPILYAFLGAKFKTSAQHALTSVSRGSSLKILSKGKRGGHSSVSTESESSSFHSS

Chain of human α4β2 nicotinic acetylcholine receptor (nAChR) (P43681 29-627 limits assumed): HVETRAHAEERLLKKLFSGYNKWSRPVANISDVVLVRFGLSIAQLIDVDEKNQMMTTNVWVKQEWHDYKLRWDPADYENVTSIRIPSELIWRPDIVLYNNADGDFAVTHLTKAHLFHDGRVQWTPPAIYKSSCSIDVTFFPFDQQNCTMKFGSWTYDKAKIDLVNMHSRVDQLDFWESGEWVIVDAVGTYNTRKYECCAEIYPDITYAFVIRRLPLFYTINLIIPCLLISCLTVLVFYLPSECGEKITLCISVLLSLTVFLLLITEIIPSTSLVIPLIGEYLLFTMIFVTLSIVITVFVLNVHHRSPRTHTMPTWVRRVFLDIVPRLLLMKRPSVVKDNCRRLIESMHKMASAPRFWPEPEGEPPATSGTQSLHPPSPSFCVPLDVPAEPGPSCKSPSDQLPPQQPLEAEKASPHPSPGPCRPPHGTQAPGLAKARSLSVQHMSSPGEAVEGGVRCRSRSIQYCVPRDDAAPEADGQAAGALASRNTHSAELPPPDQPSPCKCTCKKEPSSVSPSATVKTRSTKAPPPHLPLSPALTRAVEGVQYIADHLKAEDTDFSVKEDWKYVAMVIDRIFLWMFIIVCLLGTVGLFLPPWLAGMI
Chain of human α4β2 nicotinic acetylcholine receptor (nAChR) (P17787 26-502): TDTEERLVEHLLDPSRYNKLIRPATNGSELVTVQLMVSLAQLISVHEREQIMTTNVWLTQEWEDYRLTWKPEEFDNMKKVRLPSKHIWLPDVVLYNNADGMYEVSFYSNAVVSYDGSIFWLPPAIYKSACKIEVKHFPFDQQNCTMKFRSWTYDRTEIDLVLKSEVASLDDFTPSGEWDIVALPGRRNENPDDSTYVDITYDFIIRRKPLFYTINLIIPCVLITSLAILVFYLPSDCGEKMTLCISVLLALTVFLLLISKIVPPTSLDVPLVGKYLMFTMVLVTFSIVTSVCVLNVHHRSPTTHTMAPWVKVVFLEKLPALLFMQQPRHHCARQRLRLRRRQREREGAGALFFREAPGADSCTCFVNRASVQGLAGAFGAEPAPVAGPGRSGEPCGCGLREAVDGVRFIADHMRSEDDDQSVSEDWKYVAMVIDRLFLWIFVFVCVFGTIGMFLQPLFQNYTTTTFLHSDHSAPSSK

SMILES: CC(=O)OCC[N+](C)(C)C [acetylcholine]
- maximum membrane deformation [1]: around 70 nm

SMILES: c1cc(CN2CCCNCCNCCCNCC2)ccc1CN1CCCNCCNCCCNCC1 [AMD3100]
- binding induced membrane deformation, maximum value (CXCR-4 receptor): 46 nm
